Source: ChEMBL document CHEMBL3526061, “Glucuronidation of edaravone by human liver and kidney microsomes: biphasic kinetics and identification of UGT1A9 as the major UDP-glucuronosyltransferase isoform” (Drug Metab Dispos, 2012)

Legend:
Assay type in all cases: ADME
Liver microsome = assay: Drug metabolism in human liver microsomes assessed as intrinsic clearance for drug glucuronidation per mg tissue in presence of BSA by LC-MS/MS method
[1] = Drug metabolism in human liver microsomes assessed as drug glucuronidation in presence of BSA by LC-MS/MS method
[2] = molecular target: T1, UDP-glucuronosyltransferase 1A9 (Homo sapiens, UniProt O60656); assay: Activity of human recombinant UGT1A9 expressed in insect cells assessed as enzyme mediated glucuronidation by LC-MS/MS method
T1 sequence (O60656 whole entry): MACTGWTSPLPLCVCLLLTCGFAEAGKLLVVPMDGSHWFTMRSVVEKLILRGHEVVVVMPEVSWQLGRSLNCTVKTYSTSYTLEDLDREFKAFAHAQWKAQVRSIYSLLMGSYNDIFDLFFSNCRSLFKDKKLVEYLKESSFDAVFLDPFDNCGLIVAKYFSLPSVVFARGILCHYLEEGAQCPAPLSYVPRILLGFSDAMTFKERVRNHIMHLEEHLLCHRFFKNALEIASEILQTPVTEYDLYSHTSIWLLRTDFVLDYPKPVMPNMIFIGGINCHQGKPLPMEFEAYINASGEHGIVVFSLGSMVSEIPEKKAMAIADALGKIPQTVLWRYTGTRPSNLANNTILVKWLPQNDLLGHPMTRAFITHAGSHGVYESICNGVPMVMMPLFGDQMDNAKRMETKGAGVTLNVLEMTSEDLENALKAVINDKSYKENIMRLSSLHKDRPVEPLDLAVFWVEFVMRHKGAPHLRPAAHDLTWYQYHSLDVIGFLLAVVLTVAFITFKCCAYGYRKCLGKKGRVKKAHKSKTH

[3] = molecular target: T2, UDP-glucuronosyltransferase 1A10 (Homo sapiens, UniProt Q9HAW8); assay: Activity of human recombinant UGT1A10 expressed in insect cells assessed as enzyme mediated glucuronidation at 500 uM by LC-MS/MS method
T2 sequence (Q9HAW8 whole entry): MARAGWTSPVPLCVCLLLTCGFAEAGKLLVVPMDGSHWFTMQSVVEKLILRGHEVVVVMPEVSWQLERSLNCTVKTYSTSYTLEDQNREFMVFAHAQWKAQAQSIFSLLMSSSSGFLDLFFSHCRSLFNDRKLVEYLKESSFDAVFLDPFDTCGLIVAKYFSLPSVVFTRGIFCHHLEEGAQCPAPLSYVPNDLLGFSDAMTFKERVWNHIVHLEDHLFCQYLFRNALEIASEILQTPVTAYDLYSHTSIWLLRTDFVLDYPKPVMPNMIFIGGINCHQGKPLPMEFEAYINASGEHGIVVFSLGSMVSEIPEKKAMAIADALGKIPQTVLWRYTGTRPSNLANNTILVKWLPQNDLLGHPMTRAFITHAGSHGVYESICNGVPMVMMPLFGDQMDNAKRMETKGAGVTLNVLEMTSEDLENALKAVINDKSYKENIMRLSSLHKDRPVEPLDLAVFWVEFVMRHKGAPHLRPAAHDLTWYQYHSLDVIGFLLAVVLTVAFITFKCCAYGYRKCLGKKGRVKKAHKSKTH

[4] = molecular target: T3, UDP-glucuronosyltransferase 2B7 (Homo sapiens, UniProt P16662); assay: Activity of human recombinant UGT2B7 expressed in insect cells assessed as enzyme mediated glucuronidation in presence of […] naloxone by LC-MS/MS method
T3 sequence (P16662 whole entry): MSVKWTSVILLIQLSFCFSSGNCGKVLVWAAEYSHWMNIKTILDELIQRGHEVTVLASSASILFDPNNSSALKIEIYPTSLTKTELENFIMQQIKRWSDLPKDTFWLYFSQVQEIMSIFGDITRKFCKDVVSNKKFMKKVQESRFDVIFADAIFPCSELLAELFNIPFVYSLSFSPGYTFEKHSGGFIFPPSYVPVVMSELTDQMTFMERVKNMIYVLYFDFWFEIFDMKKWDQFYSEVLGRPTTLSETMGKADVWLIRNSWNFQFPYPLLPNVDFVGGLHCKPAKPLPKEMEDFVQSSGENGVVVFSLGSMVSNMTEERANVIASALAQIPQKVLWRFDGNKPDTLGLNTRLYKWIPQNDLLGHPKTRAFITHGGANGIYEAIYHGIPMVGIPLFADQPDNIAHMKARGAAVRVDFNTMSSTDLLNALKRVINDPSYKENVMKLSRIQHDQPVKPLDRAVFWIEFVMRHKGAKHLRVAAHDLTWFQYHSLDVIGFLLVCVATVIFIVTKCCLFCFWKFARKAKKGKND

[5] = molecular target: T4, UDP-glucuronosyltransferase 2B17 (Homo sapiens, UniProt O75795); assay: Activity of human recombinant UGT2B17 expressed in insect cells assessed as enzyme mediated glucuronidation at 500 uM by LC-MS/MS method
T4 sequence (O75795 whole entry): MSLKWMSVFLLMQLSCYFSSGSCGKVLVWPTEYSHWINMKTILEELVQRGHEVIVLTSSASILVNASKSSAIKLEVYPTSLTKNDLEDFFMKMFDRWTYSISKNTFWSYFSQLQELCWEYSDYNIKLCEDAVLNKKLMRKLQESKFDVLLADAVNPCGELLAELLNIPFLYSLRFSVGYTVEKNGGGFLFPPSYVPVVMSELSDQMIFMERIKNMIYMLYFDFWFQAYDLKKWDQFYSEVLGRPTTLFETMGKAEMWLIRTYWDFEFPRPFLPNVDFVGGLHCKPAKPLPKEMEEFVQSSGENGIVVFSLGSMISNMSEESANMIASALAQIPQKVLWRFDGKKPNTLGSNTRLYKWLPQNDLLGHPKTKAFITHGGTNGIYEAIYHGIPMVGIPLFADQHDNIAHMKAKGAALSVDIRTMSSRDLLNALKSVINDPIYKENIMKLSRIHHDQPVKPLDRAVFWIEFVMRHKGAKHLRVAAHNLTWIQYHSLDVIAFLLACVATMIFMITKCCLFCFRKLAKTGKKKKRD

CLHH (Liver microsome): 16.4 µL/min/g
CLHL (Liver microsome): 3.7 µL/min/mg
Km ([1]; read-out: KmH): 8.4 µM
Km ([1]; read-out: KmL): 1350 µM
KmH [2]: 6 µM
KmL [2]: 419.4 µM
Drug metabolism [3]: metabolite_detected
Drug metabolism [4]: metabolite_not_detected
Drug metabolism [5]: metabolite_detected
Compound: CC1=NN(c2ccccc2)C(=O)C1 [EDARAVONE]
